Source: paper PMC10017709, “Structural basis of selective cannabinoid CB2 receptor activation” (Nature Communications, 2023)
Values joined by “and” are separate entries in the source; they are usually repeats but may differ in a detail not shown here. Identical values can stand only once. Like-named read-outs stand apart in the source and are kept apart here.

Assays:
CB1R QuadrupleTM1,7 = test: [35S]GTPγS assay, CB1R quadruple mutant; type: biochemical, human
CB2R-Quadruple^TM1,7 = CB2R-Quadruple^TM1,7 (Homo sapiens, UniProt P34972, C40S/K279T/K33Q/V36I); test: [35S]GTPγS assay, CB2R quadruple mutant; type: biochemical; conditions: for [35S]GTPγS binding, percentage of WT: QuadrupleTM1,7, individual replicates
CB2R-L182^ECL2I = CB2R-L182^ECL2I (Homo sapiens, UniProt P34972, L182I); test: [35S]GTPγS assay, CB2R L182I mutant; type: biochemical; conditions: L182I mutant; at 10 µM compared to WT; read-out: Emax (%)
hCB2R [1] = molecular target: T1, hCB2R (Homo sapiens, UniProt P34972); test: [3H]RO6957022 competition association assay; type: binding; conditions: for percentage specific [3H]RO6957022 binding (competition association): individual replicates
T1 construct: host or cells: CHO-K1 (CHOK1_hCB2bgal, PathHunter), membranes

CB2R WT = CB2R WT (Homo sapiens, UniProt P34972); test: [35S]GTPγS G protein activation assay, CB2R WT; type: biochemical; conditions: for Emax: CB2R WT, read-out: Emax (%); for [35S]GTPγS binding, percentage of WT / [35S]GTPγS binding, percentage of CP55,940: individual replicates
CB2R-L185^ECL2H = CB2R-L185^ECL2H (Homo sapiens, UniProt P34972, L185H); test: [35S]GTPγS assay, CB2R L185H mutant; type: biochemical; conditions: L185H mutant; at 10 µM compared to WT; read-out: Emax (%)
CB2R-E181^ECL2D = CB2R-E181^ECL2D (Homo sapiens, UniProt P34972, E181D); test: [35S]GTPγS assay, CB2R E181D mutant; type: biochemical; conditions: E181D mutant; at 10 µM compared to WT; read-out: Emax (%)
hCB2R [2] = molecular target: T1, hCB2R; test: [3H]RO6957022 displacement assay; type: binding; conditions: individual replicates

CB2R WT, sequence (P34972 whole entry): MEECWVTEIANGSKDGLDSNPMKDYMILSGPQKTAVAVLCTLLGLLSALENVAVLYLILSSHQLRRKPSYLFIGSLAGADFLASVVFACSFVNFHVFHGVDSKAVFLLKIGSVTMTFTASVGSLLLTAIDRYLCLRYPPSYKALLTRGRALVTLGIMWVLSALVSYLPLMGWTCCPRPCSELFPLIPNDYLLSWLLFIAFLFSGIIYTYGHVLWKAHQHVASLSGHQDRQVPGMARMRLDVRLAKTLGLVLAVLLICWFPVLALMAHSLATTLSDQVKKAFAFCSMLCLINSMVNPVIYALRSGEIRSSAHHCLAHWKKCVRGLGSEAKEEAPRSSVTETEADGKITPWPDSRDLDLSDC
T1 sequence (P34972 whole entry): as above
CB2R-Quadruple^TM1,7, sequence (P34972 whole entry K33Q/V36I/C40S/K279T): as the sequence (P34972 whole entry) above, with K33Q, V36I, C40S, K279T counted along it
CB2R-L182^ECL2I, sequence (P34972 whole entry L182I): as the sequence (P34972 whole entry) above, with L182I counted along it
CB2R-E181^ECL2D, sequence (P34972 whole entry E181D): as the sequence (P34972 whole entry) above, with E181D counted along it
CB2R-L185^ECL2H, sequence (P34972 whole entry L185H): as the sequence (P34972 whole entry) above, with L185H counted along it

Question: What does the source list for `CCCCC/C=C\C/C=C\C/C=C\C/C=C\CCCC(=O)NCCO` [AEA, anandamide]?
Answer: Agonist-mediated activation (CB1R QuadrupleTM1,7): 1.6 ± 0.1 fold over its basal; Emax (CB2R-Quadruple^TM1,7; Quadruple TM1,7 mutant, at 10 µM compared to WT, read-out: Emax (%)): 24 ± 7%; [35S]GTPγS binding, percentage of WT (CB2R-Quadruple^TM1,7; log [ligand] (M) -5): 32.30 percentage of WT and 9.42 percentage of WT and 29.02 percentage of WT; [35S]GTPγS binding, percentage of WT (CB2R-Quadruple^TM1,7; log [ligand] (M) -6): -7.36 percentage of WT and -10.83 percentage of WT and 27.74 percentage of WT; [35S]GTPγS binding, percentage of WT (CB2R-Quadruple^TM1,7; log [ligand] (M) -7): -34.86 percentage of WT and -19.55 percentage of WT and 15.75 percentage of WT; [35S]GTPγS binding, percentage of WT (CB2R-Quadruple^TM1,7; log [ligand] (M) -8): 9.32 percentage of WT and -29.85 percentage of WT and 11.86 percentage of WT; Emax (CB2R-L182^ECL2I): 5 ± 17%; percentage specific [3H]RO6957022 binding (competition association) (hCB2R [1]; Time 1 min): 4.42% and 11.28% and 5.44%; percentage specific [3H]RO6957022 binding (competition association) (hCB2R [1]; Time 3 min): 16.17% and 23.05% and 21.34%; percentage specific [3H]RO6957022 binding (competition association) (hCB2R [1]; Time 5 min): 26.28% and 26.79% and 25.51%; percentage specific [3H]RO6957022 binding (competition association) (hCB2R [1]; Time 7 min): 34.14% and 35.42% and 31.98%; percentage specific [3H]RO6957022 binding (competition association) (hCB2R [1]; Time 10 min): 34.18% and 41.87% and 46.59%; percentage specific [3H]RO6957022 binding (competition association) (hCB2R [1]; Time 20 min): 41.44% and 51.99% and 48.92%; percentage specific [3H]RO6957022 binding (competition association) (hCB2R [1]; Time 30 min): 50.41% and 53.24% and 59.83%; percentage specific [3H]RO6957022 binding (competition association) (hCB2R [1]; Time 45 min): 45.80% and 66.77% and 61.94%; percentage specific [3H]RO6957022 binding (competition association) (hCB2R [1]; Time 60 min): 54.67% and 64.58% and 70.00%; percentage specific [3H]RO6957022 binding (competition association) (hCB2R [1]; Time 90 min): 60.96% and 62.48% and 62.68%; percentage specific [3H]RO6957022 binding (competition association) (hCB2R [1]; Time 120 min): 62.19% and 63.42% and 54.77%; ET (engagement time) (hCB2R [1]; at 1 µM agonist, ET = 1/(kon ∙ 1 × 10-6)): 152 s and 152 ± 10.4 s; Emax (CB2R WT; maximum effect at 10 µM compared to WT (Suppl. Table 6)): 106 ± 7%; Emax (CB2R WT; maximum effect compared to CP55,940): 60 ± 5%; [35S]GTPγS binding, percentage of WT (CB2R WT; log [ligand] (M) -5): 119.90 percentage of WT and 99.77 percentage of WT and 99.12 percentage of WT; [35S]GTPγS binding, percentage of WT (CB2R WT; log [ligand] (M) -6): 73.32 percentage of WT and 72.65 percentage of WT and 56.56 percentage of WT; [35S]GTPγS binding, percentage of WT (CB2R WT; log [ligand] (M) -7): 21.64 percentage of WT and 23.33 percentage of WT and 32.57 percentage of WT; [35S]GTPγS binding, percentage of WT (CB2R WT; log [ligand] (M) -8): 2.55 percentage of WT and 4.67 percentage of WT and 26.67 percentage of WT; [35S]GTPγS binding, percentage of CP55,940 (CB2R WT; log [agonist] (M) -5): 55.30% and 54.57% and 71.23%; [35S]GTPγS binding, percentage of CP55,940 (CB2R WT; log [agonist] (M) -6): 33.82% and 39.74% and 40.65%; [35S]GTPγS binding, percentage of CP55,940 (CB2R WT; log [agonist] (M) -7): 9.98% and 12.76% and 23.41%; [35S]GTPγS binding, percentage of CP55,940 (CB2R WT; log [agonist] (M) -8): 1.18% and 2.55% and 19.17%; Emax (CB2R-L185^ECL2H): 210 ± 61%; Emax (CB2R-E181^ECL2D): 14 ± 5%; percentage specific [3H]RO6957022 binding (displacement) (hCB2R [2]; log [agonist] (M) -5): 3.79% and 18.06% and 16.04%; percentage specific [3H]RO6957022 binding (displacement) (hCB2R [2]; log [agonist] (M) -6): 47.48% and 65.38% and 68.38%; percentage specific [3H]RO6957022 binding (displacement) (hCB2R [2]; log [agonist] (M) -7): 87.86% and 102.56% and 105.31%; percentage specific [3H]RO6957022 binding (displacement) (hCB2R [2]; log [agonist] (M) -8): 101.15% and 95.97% and 108.64%
